In patent publication US20260355196A1, “INHIBITORS AND DEGRADERS OF PIP4K PROTEIN” (Larkspur Biosciences, Inc., priority 2023, published 2026) one finds DC50 data, which are given here for 18 molecules.

One may read the DC50 as the concentration giving 50% degradation.

In the first experiment the target is T1, PIP4K2C (Homo sapiens, UniProt Q8TBX8).
T1 sequence (Q8TBX8 1-421): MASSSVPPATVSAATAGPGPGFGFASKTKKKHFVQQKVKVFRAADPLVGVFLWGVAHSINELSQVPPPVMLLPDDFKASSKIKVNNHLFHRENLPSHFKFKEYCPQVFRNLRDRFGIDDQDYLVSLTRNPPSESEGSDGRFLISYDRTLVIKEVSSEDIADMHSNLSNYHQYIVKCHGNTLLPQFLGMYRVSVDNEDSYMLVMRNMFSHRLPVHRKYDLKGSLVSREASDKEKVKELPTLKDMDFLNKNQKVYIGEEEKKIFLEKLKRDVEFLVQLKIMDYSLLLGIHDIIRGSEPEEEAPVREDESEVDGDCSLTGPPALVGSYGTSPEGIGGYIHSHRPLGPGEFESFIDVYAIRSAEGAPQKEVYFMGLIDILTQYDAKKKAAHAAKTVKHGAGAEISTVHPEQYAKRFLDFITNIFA
In words: HiBiT PIP4K2C degradation assay in MOLT-4 cells (endogenous PIP4K2C C-terminally tagged with HiBiT). Set-up: untagged in primary human PBMCs and monocyte-derived dendritic cells. The experiment is classed as cell-based. Conditions: 6 hours of incubation time, rather than 24 hours; MOLT-4, top concentration 10 micromolar; read-out: HiBIT-degradation MOLT4 PIP4k2C DC50 (6 hours, marked *). In a few lines:
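Cells are plated onto compound dilutions (10 points, 3-fold, top 10 micromolar) and incubated 24 or 6 hours at 37 C. Lytic HiBiT detection then quantifies tagged endogenous PIP4K2C in MOLT-4, and a Hill fit yields DC50.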
A general note: The HiBiT peptide binds its large partner to form an active luciferase.
As for `O=C1CCC(Nc2ccc(C3CCN([C@H]4CC[C@H](C(=O)N[C@H]5CC[C@H](Nc6ncc(F)c(-c7cccc(-c8ccccc8)c7)n6)CC5)CC4)CC3)c(F)c2)C(=O)N1` (stereo partly drawn) [Compound 660, trans-(1r,4R)—N-((1r,4R)-4-((4-([1,1′-biphenyl]-3-yl)-5-fluoropyrimidin-2-yl)amino)cyclohexyl)-4-(4-(4-((2,6-dioxopiperidin-3-yl)amino)-2-fluorophenyl)piperidin-1-yl)cyclohexane-1-carboxamide], the DC50 was less than 500 nM.
Still for that read-out and setting: with `O=C1CCC(Nc2ccc(N3CCN([C@H]4CC[C@H](NC(=O)[C@H]5CC[C@H](Nc6ncc(F)c(-c7cccc(N8CCOCC8)c7)n6)CC5)CC4)CC3)c(F)c2)C(=O)N1` (stereo partly drawn) [Compound 661, trans-(1r,4R)—N-((1r,4R)-4-(4-(4-((2,6-dioxopiperidin-3-yl)amino)-2-fluorophenyl)piperazin-1-yl)cyclohexyl)-4-((5-fluoro-4-(3-morpholinophenyl)pyrimidin-2-yl)amino)cyclohexane-1-carboxamide] the figure was less than 500 nM.
For the molecule `O=C1CCC(Nc2ccc(N3CCN([C@H]4CC[C@H](NC(=O)[C@H]5CC[C@H](Nc6ncc(F)c(-c7cccc(-c8ccccc8)c7)n6)CC5)CC4)CC3)c(F)c2)C(=O)N1` (stereo partly drawn) [Compound 662, trans-(1r,4R)-4-((4-([1,1′-biphenyl]-3-yl)-5-fluoropyrimidin-2-yl)amino)-N-((1r,4R)-4-(4-(4-((2,6-dioxopiperidin-3-yl)amino)-2-fluorophenyl)piperazin-1-yl)cyclohexyl)cyclohexane-1-carboxamide], the DC50 was less than 500 nM.
In the case of `O=C1CCC(Nc2ccc(C3CCN(C(=O)CC4(O)CCN(C(=O)O[C@H]5CC[C@H](Nc6ncc(F)c(-c7cccc(-n8ccccc8=O)c7)n6)CC5)CC4)CC3)c(F)c2)C(=O)N1` (stereo partly drawn) [Compound 663, trans-4-((5-fluoro-4-(3-(2-oxopyridin-1 (2H)-yl)phenyl)pyrimidin-2-yl)amino)cyclohexyl 4-(2-(4-(4-((2,6-dioxopiperidin-3-yl)amino)-2-fluorophenyl)piperidin-1-yl)-2-oxoethyl)-4-hydroxypiperidine-1-carboxylate], the 50% degradation concentration (DC50) is less than 500 nM.
The same measure, in the same setting: with `O=C1CCC(Nc2ccc(N3CCN(C4CCN(C(=O)O[C@H]5CC[C@H](Nc6ncc(F)c(-c7cccc(-c8ccccc8)c7)n6)CC5)CC4)CC3)c(F)c2)C(=O)N1` (stereo partly drawn) [Compound 664, trans-[4-[[5-fluoro-4-(3-phenylphenyl)pyrimidin-2-yl]amino]cyclohexyl]4-[4-[4-[(2,6-dioxo-3-piperidyl)amino]-2-fluoro-phenyl]piperazin-1-yl]piperidine-1-carboxylate] the figure was less than 500 nM; with `O=C1CCC(Nc2ccc(C3CCN(CC4(O)CCN(C(=O)[C@H]5CC[C@H](Nc6ncc(F)c(-c7cccc(N8CCOCC8)c7)n6)CC5)CC4)CC3)c(F)c2)C(=O)N1` (stereo partly drawn) [Compound 665, 3-((3-fluoro-4-(1-((1-((trans)-4-((5-fluoro-4-(3-morpholinophenyl)pyrimidin-2-yl)amino)cyclohexane-1-carbonyl)-4-hydroxypiperidin-4-yl)methyl)piperidin-4-yl)phenyl)amino)piperidine-2,6-dione], less than 500 nM; with `O=C1CCC(Nc2ccc(C3CCN(C4CC5(C4)CN(C(=O)O[C@H]4CC[C@H](Nc6ncc(F)c(-c7cccc(-n8ccccc8=O)c7)n6)CC4)C5)CC3)c(F)c2)C(=O)N1` (stereo partly drawn) [Compound 666, (trans)-4-((5-fluoro-4-(3-(2-oxopyridin-1 (2H)-yl)phenyl)pyrimidin-2-yl)amino)cyclohexyl 6-(4-(4-((2,6-dioxopiperidin-3-yl)amino)-2-fluorophenyl)piperidin-1-yl)-2-azaspiro[3.3]heptane-2-carboxylate], less than 500 nM.
Turning to `O=C1CCC(Nc2ccc(N3CCN(C[C@H]4CC[C@H](C(=O)N5CCC(Nc6ncc(F)c(-c7cccc(N8CCCOC8=O)c7)n6)CC5)CC4)CC3)c(F)c2)C(=O)N1` (stereo partly drawn) [Compound 667, 3-((3-fluoro-4-(4-((trans-4-(4-((5-fluoro-4-(3-(2-oxo-1,3-oxazinan-3-yl)phenyl)pyrimidin-2-yl)amino)piperidine-1-carbonyl)cyclohexyl)methyl)piperazin-1-yl)phenyl)amino)piperidine-2,6-dione], the DC50 was less than 500 nM.
For the molecule `O=C1CCC(Nc2ccc(N3CCC(N4CCN(C(=O)O[C@H]5CC[C@H](Nc6ncc(F)c(-c7cccc(-n8ccccc8=O)c7)n6)CC5)CC4)C(F)C3)c(F)c2)C(=O)N1` (stereo partly drawn) [Compound 668, trans-[4-[[5-fluoro-4-[3-(2-oxo-1-pyridyl)phenyl]pyrimidin-2-yl]amino]cyclohexyl]4-[1-[4-[(2,6-dioxo-3-piperidyl)amino]-2-fluoro-phenyl]-3-fluoro-4-piperidyl]piperazine-1-carboxylate], the DC50 was greater than 5000 nM.
Same read-out and setting: then `O=C1CCC(Nc2ccc(C3CCN(C(=O)C4CCN(C(=O)[C@H]5CC[C@H](Nc6ncc(F)c(-c7cccc(-n8ccccc8=O)c7)n6)CC5)CC4)CC3)c(F)c2)C(=O)N1` (stereo partly drawn) [Compound 669, trans-3-((3-fluoro-4-(1-(1-(4-((5-fluoro-4-(3-(2-oxopyridin-1 (2H)-yl)phenyl)pyrimidin-2-yl)amino)cyclohexane-1-carbonyl)piperidine-4-carbonyl)piperidin-4-yl)phenyl)amino)piperidine-2,6-dione], with less than 500 nM; and `O=C1CCC(Nc2ccc(C3CCN(C[C@H]4CC[C@H](C(=O)N5CCC(Nc6ncc(F)c(-c7cccc(N8CCOCC8)c7)n6)CC5)CC4)CC3)c(F)c2)C(=O)N1` (stereo partly drawn) [Compound 671, trans-3-((3-fluoro-4-(1-((4-(4-((5-fluoro-4-(3-morpholinophenyl)pyrimidin-2-yl)amino)piperidine-1-carbonyl)cyclohexyl)methyl)piperidin-4-yl)phenyl)amino)piperidine-2,6-dione], with less than 500 nM; and `O=C1CCC(Nc2ccc(C3CCN(CC4CCN(C(=O)[C@H]5CC[C@H](Nc6ncc(F)c(-c7cccc(N8CCOCC8)c7)n6)CC5)CC4)CC3)c(F)c2)C(=O)N1` (stereo partly drawn) [Compound 672, trans-3-((3-fluoro-4-(1-((1-(4-((5-fluoro-4-(3-morpholinophenyl)pyrimidin-2-yl)amino)cyclohexane-1-carbonyl)piperidin-4-yl)methyl)piperidin-4-yl)phenyl)amino)piperidine-2,6-dione], with less than 500 nM.
Turning to `O=C1CCC(Nc2ccc(N3CCN(C4CCN(C(=O)O[C@H]5CC[C@H](Nc6ncc(F)c(-c7cccc(N8CCOCC8)c7)n6)CC5)CC4)CC3)c(F)c2)C(=O)N1` (stereo partly drawn) [Compound 673, trans-4-((5-fluoro-4-(3-morpholinophenyl)pyrimidin-2-yl)amino)cyclohexyl 4-(4-(4-((2,6-dioxopiperidin-3-yl)amino)-2-fluorophenyl)piperazin-1-yl)piperidine-1-carboxylate], the DC50 was less than 500 nM.
Turning to `O=C1CCC(Nc2ccc(N3CCN(C4CCN(C(=O)O[C@H]5CC[C@H](Nc6ncc(F)c(-c7cccc(N8CCCOC8=O)c7)n6)CC5)CC4)CC3)c(F)c2)C(=O)N1` (stereo partly drawn) [Compound 674, trans-4-((5-fluoro-4-(3-(2-oxo-1,3-oxazinan-3-yl)phenyl)pyrimidin-2-yl)amino)cyclohexyl 4-(4-(4-((2,6-dioxopiperidin-3-yl)amino)-2-fluorophenyl)piperazin-1-yl)piperidine-1-carboxylate], the DC50 is less than 500 nM.
Still for that read-out and setting: then `O=C1CCC(Nc2ccc(C3CCN(C4CCN(C(=O)O[C@H]5CC[C@H](Nc6ncc(F)c(-c7cccc(N8CCOCC8)c7)n6)CC5)CC4)CC3)c(F)c2)C(=O)N1` (stereo partly drawn) [Compound 676, trans-4-((5-fluoro-4-(3-morpholinophenyl)pyrimidin-2-yl)amino)cyclohexyl 4-(4-((2,6-dioxopiperidin-3-yl)amino)-2-fluorophenyl)-[1,4′-bipiperidine]-1′-carboxylate], with less than 500 nM.
Still for that read-out and setting: with `O=C1CCC(Nc2ccc(C3CCN(C4CCN(C(=O)O[C@H]5CC[C@H](Nc6ncc(F)c(-c7cccc(N8CCCOC8=O)c7)n6)CC5)CC4)CC3)c(F)c2)C(=O)N1` (stereo partly drawn) [Compound 677, trans-4-((5-fluoro-4-(3-(2-oxo-1,3-oxazinan-3-yl)phenyl)pyrimidin-2-yl)amino)cyclohexyl 4-(4-((2,6-dioxopiperidin-3-yl)amino)-2-fluorophenyl)-[1,4′-bipiperidine]-1′-carboxylate] the figure was less than 500 nM.

The experiment is the same for the next values; noted with them: read-out: HiBIT-degradation MOLT4 PIP4k2C DC50 (6 hours, marked *); 6 hours of incubation time, rather than 24 hours; MOLT-4, top concentration 10 micromolar.
With `O=C1CCC(Nc2ccc(N3CCN(C[C@H]4CC[C@H](C(=O)N5CCC(Nc6ncc(F)c(-c7cccc(N8CCOCC8)c7)n6)CC5)CC4)CC3)c(F)c2)C(=O)N1` (stereo partly drawn) [Compound 670, 3-((3-fluoro-4-(4-((trans-4-(4-((5-fluoro-4-(3-morpholinophenyl)pyrimidin-2-yl)amino)piperidine-1-carbonyl)cyclohexyl)methyl)piperazin-1-yl)phenyl)amino) piperidine-2,6-dione], the DC50 was greater than 5000 nM.
Same read-out and setting: with `O=C1CCC(Nc2ccc(N3CCN(C4CCN(C(=O)O[C@H]5CC[C@H](Nc6ncc(F)c(-c7cccc(N8CCCCC8=O)c7)n6)CC5)CC4)CC3)c(F)c2)C(=O)N1` (stereo partly drawn) [Compound 675, trans-4-((5-fluoro-4-(3-(2-oxopiperidin-1-yl)phenyl)pyrimidin-2-yl)amino)cyclohexyl 4-(4-(4-((2,6-dioxopiperidin-3-yl)amino)-2-fluorophenyl)piperazin-1-yl)piperidine-1-carboxylate] the figure was less than 500 nM.
